ChEMBL document CHEMBL3632492, “Substituted 2-arylquinazolinones: Design, synthesis, and evaluation of cytotoxicity and inhibition of topoisomerases” (Eur J Med Chem, 2015)

How the values were obtained:
[1] = target: T1, DNA topoisomerase 1 (Homo sapiens) (UniProt P11387); assay: Inhibition of recombinant human topoisomerase 1 assessed as relaxation of supercoiled plasmid DNA pBR322 at 100 uM incubated for 30 mins by agarose gel electrophoresis
T1 sequence (whole entry): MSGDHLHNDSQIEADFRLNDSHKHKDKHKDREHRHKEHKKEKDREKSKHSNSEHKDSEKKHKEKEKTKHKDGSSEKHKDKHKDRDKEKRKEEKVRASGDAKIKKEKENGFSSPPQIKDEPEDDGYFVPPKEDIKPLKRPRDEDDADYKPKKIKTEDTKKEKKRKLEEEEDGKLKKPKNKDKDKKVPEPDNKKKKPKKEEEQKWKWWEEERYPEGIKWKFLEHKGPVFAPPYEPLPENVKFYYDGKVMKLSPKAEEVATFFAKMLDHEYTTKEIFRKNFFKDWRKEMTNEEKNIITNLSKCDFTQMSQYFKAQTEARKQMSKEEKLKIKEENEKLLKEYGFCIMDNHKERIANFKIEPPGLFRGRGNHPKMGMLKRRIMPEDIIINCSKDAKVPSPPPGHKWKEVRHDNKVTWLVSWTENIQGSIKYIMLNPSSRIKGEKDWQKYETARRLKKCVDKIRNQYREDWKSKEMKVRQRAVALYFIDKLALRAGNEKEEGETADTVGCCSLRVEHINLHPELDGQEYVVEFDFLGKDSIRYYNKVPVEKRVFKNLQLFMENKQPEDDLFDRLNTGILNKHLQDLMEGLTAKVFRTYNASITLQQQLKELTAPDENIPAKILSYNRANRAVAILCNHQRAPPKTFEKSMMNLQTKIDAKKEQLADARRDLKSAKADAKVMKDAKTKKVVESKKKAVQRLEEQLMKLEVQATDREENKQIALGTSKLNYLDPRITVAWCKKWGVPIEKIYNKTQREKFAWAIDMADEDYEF

[2] = target: DNA topoisomerase 2-alpha (Homo sapiens) (UniProt P11388); assay: Inhibition of recombinant human topoisomerase 2alpha assessed as relaxation of supercoiled plasmid DNA pBR322 at 100 uM incubated for 30 mins by agarose gel electrophoresis
DNA topoisomerase 2-alpha (Homo sapiens), sequence (P11388 whole entry): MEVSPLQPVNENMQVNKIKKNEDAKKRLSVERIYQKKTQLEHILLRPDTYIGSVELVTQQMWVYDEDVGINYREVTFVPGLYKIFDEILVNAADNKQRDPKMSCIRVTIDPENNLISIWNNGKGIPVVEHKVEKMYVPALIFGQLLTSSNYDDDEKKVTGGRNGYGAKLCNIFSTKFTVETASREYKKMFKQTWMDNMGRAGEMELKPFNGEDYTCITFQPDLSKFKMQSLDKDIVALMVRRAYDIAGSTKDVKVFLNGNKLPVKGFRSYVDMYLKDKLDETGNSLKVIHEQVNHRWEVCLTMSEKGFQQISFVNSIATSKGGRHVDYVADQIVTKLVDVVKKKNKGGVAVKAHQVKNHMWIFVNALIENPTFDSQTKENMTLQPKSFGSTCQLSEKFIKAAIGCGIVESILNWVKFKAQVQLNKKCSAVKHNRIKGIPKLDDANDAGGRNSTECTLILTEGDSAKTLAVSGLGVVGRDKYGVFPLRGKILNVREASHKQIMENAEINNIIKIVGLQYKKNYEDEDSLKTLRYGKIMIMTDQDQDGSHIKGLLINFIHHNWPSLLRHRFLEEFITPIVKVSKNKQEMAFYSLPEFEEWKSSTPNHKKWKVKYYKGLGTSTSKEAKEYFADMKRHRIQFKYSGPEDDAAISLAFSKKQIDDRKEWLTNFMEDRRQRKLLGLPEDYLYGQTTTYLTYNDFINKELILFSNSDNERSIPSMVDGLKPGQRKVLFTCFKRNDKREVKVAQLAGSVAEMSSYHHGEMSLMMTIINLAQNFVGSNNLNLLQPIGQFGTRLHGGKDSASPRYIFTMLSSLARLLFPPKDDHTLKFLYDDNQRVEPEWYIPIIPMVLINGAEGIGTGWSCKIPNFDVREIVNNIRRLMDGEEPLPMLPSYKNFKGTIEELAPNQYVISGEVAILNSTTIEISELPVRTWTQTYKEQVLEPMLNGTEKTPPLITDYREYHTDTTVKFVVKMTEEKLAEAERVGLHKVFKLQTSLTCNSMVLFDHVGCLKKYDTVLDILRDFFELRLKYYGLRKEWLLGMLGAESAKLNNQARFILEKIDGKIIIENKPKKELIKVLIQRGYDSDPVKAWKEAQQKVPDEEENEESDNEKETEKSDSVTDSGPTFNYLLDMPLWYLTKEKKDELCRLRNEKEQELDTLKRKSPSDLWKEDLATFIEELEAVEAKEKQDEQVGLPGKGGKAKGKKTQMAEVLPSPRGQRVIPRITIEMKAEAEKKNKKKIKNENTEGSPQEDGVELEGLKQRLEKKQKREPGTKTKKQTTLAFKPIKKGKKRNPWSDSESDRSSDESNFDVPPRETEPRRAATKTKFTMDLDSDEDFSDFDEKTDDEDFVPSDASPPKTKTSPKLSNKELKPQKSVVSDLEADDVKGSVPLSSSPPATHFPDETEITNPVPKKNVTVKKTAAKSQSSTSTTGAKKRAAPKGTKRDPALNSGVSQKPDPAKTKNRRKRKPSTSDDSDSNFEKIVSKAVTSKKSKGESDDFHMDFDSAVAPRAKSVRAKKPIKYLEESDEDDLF

[3] = test system: HCT-15; assay: Cytotoxicity against human HCT15 cells measured after 2 days by MTT assay; type: functional, cell-based; settings: HCT-15, 48 h
[4] = test system: T47D; assay: Cytotoxicity against human T47D cells measured after 2 days by MTT assay; type: functional, cell-based; settings: 48 h
[5] = test system: HeLa; assay: Cytotoxicity against human HeLa cells measured after 2 days by MTT assay; type: functional, cell-based; settings: 48 h
[6] = target: T1, DNA topoisomerase 1 (Homo sapiens); assay: Potency index, ratio of compound activity to CPT activity for inhibition of recombinant human topoisomerase 1 at 100 uM
[7] = target: T1, DNA topoisomerase 1 (Homo sapiens); assay: Inhibition of recombinant human topoisomerase 1 assessed as relaxation of supercoiled plasmid DNA pBR322 at 20 uM incubated for 30 mins by agarose gel electrophoresis
[8] = target: DNA topoisomerase 2-alpha (Homo sapiens) (UniProt P11388); assay: Inhibition of recombinant human topoisomerase 2alpha assessed as relaxation of supercoiled plasmid DNA pBR322 at 20 uM incubated for 30 mins by agarose gel electrophoresis
[9] = target: T1, DNA topoisomerase 1 (Homo sapiens); assay: Potency index, ratio of compound activity to CPT activity for inhibition of recombinant human topoisomerase 1 at 20 uM
[10] = target: DNA topoisomerase 2-alpha (Homo sapiens) (UniProt P11388); assay: Potency index, ratio of compound activity to etoposide activity for inhibition of recombinant human topoisomerase 2alpha at 100 uM
[11] = target: DNA topoisomerase 2-alpha (Homo sapiens) (UniProt P11388); assay: Potency index, ratio of compound activity to etoposide activity for inhibition of recombinant human topoisomerase 2alpha at 20 uM

inhibition [1] [%]	inhibition [2] [%]	Ratio [6]	inhibition [7] [%]	inhibition [8] [%]	Ratio [9]	Ratio [10]	Ratio [11]	SMILES	IC50 [3] [µM]	IC50 [4] [µM]	IC50 [5] [µM]
0	0	–	–	–	–	–	–	Cc1ccc2nc(-c3ccccc3C)[nH]c(=O)c2c1	11.7	> 50	4.58
45.8	11.2	0.64	4.2	0	0.13	0.14	–	Cc1ccc2nc(-c3cccc(C(F)(F)F)c3)[nH]c(=O)c2c1	> 50	> 50	> 50
71.8	65.2	1.01	0	19	–	0.81	0.38	COc1cccc(-c2nc3ccc(C)cc3c(=O)[nH]2)c1	32	> 50	> 50
82.9	7.2	1.03	21.1	–	1.22	0.09	–	Cc1ccc2nc(-c3ccccc3N(C)C)[nH]c(=O)c2c1	> 50	26.7	14
81.2	0	0.98	0	–	–	–	–	Cc1ccc2c(=O)[nH]c(-c3ccccc3F)nc2c1	10.3	> 50	0.83
100	43.6	1.29	80	25.2	2.6	0.54	0.5	COc1cccc(-c2nc3cc(C)ccc3c(=O)[nH]2)c1	4.85	> 50	8.94
66.9	5.47	0.83	0	–	–	0.06	–	Cc1ccc2nc(-c3ccccc3OC(F)(F)F)[nH]c(=O)c2c1	2.79	> 50	0.85
67.9	0	0.84	36.3	–	2.11	–	–	Cc1ccc2nc(-c3ccccc3F)[nH]c(=O)c2c1	> 50	> 50	> 50
82.9	0	1.03	0.2	–	0.01	–	–	Cc1ccc2nc(-c3cccc(F)c3)[nH]c(=O)c2c1	> 50	> 50	> 50
100	40.4	1.29	56.3	24.9	1.83	0.5	0.5	Cc1cccc(-c2nc3cc(C)ccc3c(=O)[nH]2)c1	21.1	> 50	11.2
72	7.2	1.01	21.1	0	0.65	0.09	–	Cc1ccc2nc(-c3ccccc3C(F)(F)F)[nH]c(=O)c2c1	> 50	> 50	2.45
100	0	1.29	93.6	–	3.04	–	–	Cc1ccc2c(=O)[nH]c(-c3cccc(C(F)(F)F)c3)nc2c1	> 50	> 50	> 50
98.6	0	1.39	0	–	–	–	–	Cc1ccc2nc(-c3cccc(OC(F)(F)F)c3)[nH]c(=O)c2c1	> 50	> 50	> 50
75.7	4.6	1.06	12.7	–	0.39	0.05	–	Cc1cccc(-c2nc3ccc(C)cc3c(=O)[nH]2)c1	> 50	> 50	> 50
77.2	0	0.93	0	–	–	–	–	Cc1ccc2c(=O)[nH]c(-c3cccc(OC(F)(F)F)c3)nc2c1	> 50	> 50	> 50
77.5	9.6	0.93	4.3	–	0.16	0.12	–	Cc1ccc2c(=O)[nH]c(-c3cccc(F)c3)nc2c1	14.4	> 50	> 50

The next lines start with the compound.

SMILES	inhibition [1] [%]	inhibition [2] [%]	Ratio [6]	inhibition [7] [%]	inhibition [8] [%]	Ratio [9]	Ratio [10]	Ratio [11]	IC50 [3] [µM]	IC50 [4] [µM]	IC50 [5] [µM]
O=c1[nH]c(-c2cccc3ccccc23)nc2ccc(N3CCCCC3)cc12	100	0	1.24	33.4	–	1.94	–	–	2.24	> 50	0.33
Cc1ccc2nc(-c3cccc4ccccc34)[nH]c(=O)c2c1	4.1	5.5	0.05	–	–	–	0.06	–	> 50	> 50	5.36
COc1cc([C@@H]2c3cc4c(cc3[C@@H](O[C@@H]3O[C@@H]5CO[C@@H](C)O[C@H]5[C@H](O)[C@H]3O)[C@H]3COC(=O)[C@H]23)OCO4)cc(OC)c1O [ETOPOSIDE]	–	–	–	–	–	–	–	–	5.54	9.28	7.6
Cc1ccc2c(=O)[nH]c(-c3ccccc3OC(F)(F)F)nc2c1	100	0	1.29	100	–	3.25	–	–	15.9	> 50	18.3
CCN(CC)c1ccc2nc(-c3ccccc3C(F)(F)F)[nH]c(=O)c2c1	81.7	9.4	0.98	13.3	–	0.49	0.11	–	0.28	2.55	0.1
COc1cccc2c1C(=O)c1c(O)c3c(c(O)c1C2=O)C[C@@](O)(C(=O)CO)C[C@@H]3O[C@H]1C[C@H](N)[C@H](O)[C@H](C)O1 [DOXORUBICIN]	–	–	–	–	–	–	–	–	3.33	1.9	0.52
CCN(CC)c1ccc2nc(-c3ccccc3N(C)C)[nH]c(=O)c2c1	82.1	0	0.99	0	–	–	–	–	4.2	2.21	0.07
CC[C@@]1(O)C(=O)OCc2c1cc1n(c2=O)Cc2cc3ccccc3nc2-1 [CAMPTOTHECIN]	–	–	–	–	–	–	–	–	6.08	1.62	1.59
Cc1ccc2c(=O)[nH]c(-c3ccccc3N(C)C)nc2c1	82.1	28.1	0.19	5.3	41.9	0.19	0.35	0.84	12.8	4.43	43.8
CCN(CC)c1ccc2nc(-c3ccccc3OC(F)(F)F)[nH]c(=O)c2c1	81.2	0	0.98	0	–	–	–	–	1.71	1.67	0.04
CN(C)c1ccc2nc(-c3cccc4ccccc34)[nH]c(=O)c2c1	100	0	1.24	2.4	–	0.14	–	–	0.46	> 50	0.05
Cc1ccc2c(=O)[nH]c(-c3cccc4ccccc34)nc2c1	100	0	1.29	60.1	–	1.95	–	–	23.3	> 50	> 50
COc1cccc(-c2nc3ccc(N4CCCCC4)cc3c(=O)[nH]2)c1OC	80.9	0	0.97	0	–	–	–	–	24.8	10.4	8.19
CCN(CC)c1ccc2nc(-c3cccc4ccccc34)[nH]c(=O)c2c1	90.4	0	1.17	25.5	–	0.83	–	–	3.21	2.69	0.004
